Measurements reported in patent US11693017B2, “Small molecule biosensors” (President and Fellows of Harvard College, priority 2015, dated 2023).

Tests used:
[1] = test system: G-DIG1-V-Matα2 biosensor with pUAS::Luc in transgenic Arabidopsis plants; test: TF-biosensor assays in transgenic Arabidopsis plants; format: in vivo, Arabidopsis thaliana
Protocol: Transgenic plants expressing the digoxin biosensor genetic circuit were tested for digoxigenin-induced luciferase expression by placing 14-16 day old plants in liquid MS (-sucrose) media supplemented with 0.1 mM digoxigenin in 24-well plates, and incubated in a growth chamber at 24° C., […] light.
Luciferase expression was measured by imaging plants with a Stanford Photonics XR/MEGA-10 ICCD Camera, after spraying luciferin and dark adapting plants for 30 minutes. Luciferase expression was quantified using Piper Control (v.2.6.17) software. Plants from line KJM58-10 were used to test for specificity of induction by incubating plants, as described above, in 0.1 mM digoxigenin, 0.1 mM digitoxigenin, and 0.02 mM β-estradiol. All chemicals were obtained from Sigma-Aldrich (St. Louis, Mo.).

[2] = test system: DIG-Cas9 fusion in K562 cell line containing a broken EGFP; test: TF-biosensor-Cas9 assay (EGFP repair); format: cell-based, human; details: 48-hour incubation
Protocol: Construct integration was carried out as for the Cas9 experiments for EGFP assays, except that the constructs were integrated into K562 containing a broken EGFP reporter construct. Introduction of an engineered nuclease along with a donor oligonucleotide can correct the EGFP and produce fluorescent cells. Upon successful integration (˜10 days after initial transfection), 500,000 cells were nucleofected with 500 ng of guide RNA (sgRNA) and 2 μg of donor oligonucleotide. Nucleofected cells were then collected with 200 μL of media and 50 μL aliquots were added to wells containing 950 μL of media. Each nucleofection was split into four separate wells containing 1 μM of digoxigenin, 25 μM of progesterone, or no small molecule. Forty-eight hours later, cells were analyzed using flow cytometry and the percentage of EGFP positive cells was determined.

[3] = test system: LexA-based TF-biosensors with DIG1 and B42; test: Luciferase reporter assay in yeast with LexA-based TF-biosensor; format: cell-based, Saccharomyces cerevisiae; details: reporter promoter containing LexA-binding sites
Protocol: Yeast strains containing either a plasmid-borne or integrated luciferase reporter were transformed with p16C plasmids encoding TF-biosensors. Transformants were grown in triplicate overnight at 30° C. in SD-ura media containing 2% glucose in sterile glass test tubes on a roller drum. After ˜16 hours of growth, OD600 of each sample was measured and cultures were back diluted to OD600=0.2 in fresh SD-ura media containing steroid dissolved in DMSO or a DMSO control (1% DMSO final). Cultures were grown at 30° C. on roller drum for 8 hrs prior to taking readings. Measurement of luciferase activity was adapted from a previously reported protocol^58. 100 uL of each culture was transferred to a 96-well white NUNC plate. 100 uL of 2 mM D-luciferin in 0.1 M sodium citrate (pH 4.5) was added to each well of the plate and luminescence was measured on a Victor 3V after 5 minutes.

[4] = target: DIG10.3 (DIG0); details: cited from earlier work
[5] = test system: degron-G-PRO1-V in HIS3 reporter strain PJ69-4a; test: Yeast spotting (HIS3 growth) assay; format: cell-based, Saccharomyces cerevisiae; details: -his media
Protocol: Yeast strain PJ69-4a transformed with p16C plasmids containing degron G-DIG-V variants were first inoculated from colonies into SD-ura media and grown at 30° C. overnight (16 h). 1 mL of each culture was pelleted by centrifugation (3000 rcf, 2 min), resuspended in 1 mL of fresh SD-ura and the OD660 was measured. Each culture was then diluted in SD-ura media to an OD660=0.2 and incubated at 30° C. for 4-6 hrs. 1 mL of each culture was pelleted and resuspended in sterile, distilled water and the OD660 measured again. Each transformant was then diluted to an OD660=0.1. Four 1/10 serial dilutions of each culture were prepared in sterile water (for a total of 5 solutions). 10 μL of each dilution was spotted in series onto several SD-ura-his agar plates containing 1 mM 3-aminotriazole and the indicated steroid.

[6] = target: PRO0; details: cited from earlier work

Q: Which “induction of luciferase activity compared to the uninduced control” value ([1]; after 42 hours, T1 transgenic plants) does the source give for C[C@]12CC[C@H](O)C[C@H]1CC[C@@H]1[C@@H]2C[C@@H](O)[C@]2(C)[C@@H](C3=CC(=O)OC3)CC[C@]12O [digoxigenin] here?
A: 30-50 fold

Q: What about the “increase in GFP positive cells relative to the mock control” value [2] of the same compound?
A: ~18 fold

Q: Which results are given for C[C@H]1O[C@@H](O[C@H]2[C@@H](O)C[C@H](O[C@H]3[C@@H](O)C[C@H](O[C@H]4CC[C@@]5(C)[C@H](CC[C@@H]6[C@@H]5C[C@@H](O)[C@]5(C)[C@@H](C7=CC(=O)OC7)CC[C@]65O)C4)O[C@@H]3C)O[C@@H]2C)C[C@H](O)[C@@H]1O [digoxin]?
A: activation in the presence of digoxin [3]: ~40 fold; induction of the biosensor ([1]; transgenic Arabidopsis plants): capable of inducing; affinity of binding to DIG10.3 (DIG0) [4]: picomolar

Q: For CC(=O)[C@H]1CC[C@H]2[C@@H]3CC=C4C[C@@H](O)CC[C@]4(C)[C@H]3CC[C@]12C [pregnenolone], which “growth of histidine auxotrophic reporter strain” value [5] is on record?
A: not

Q: Which results are given for CC(=O)[C@H]1CC[C@H]2[C@@H]3CCC4=CC(=O)CC[C@]4(C)[C@H]3CC[C@]12C [progesterone]?
A: affinity of binding to PRO0 [6]: nanomolar; growth of histidine auxotrophic reporter strain [5]: stimulated
